Read-outs that look alike come from different tables or passages of the source.
Assays:
Stromelysin = molecular target: T1, Stromelysin (Homo sapiens, UniProt P08254); assay: Inhibition of degradation (autolysis) of stromelysin; format: biochemical; conditions: 500 mM
T1 construct: initiating methionine (N); made in house; host or cells: E. coli BL21(DE3)/pLysS, pET3d
Description: Studies were performed to design new ligands that bound to the catalytic domain of stromelysin. Because stromelysin undergoes autolysis, an inhibitor was sought to block the degradation of stromelysin. That inhibitor would facilitate the screening of other potential ligands that bind to other sites on the enzyme.
A variety of hydroxamic acids of the general formula R-(CO)NHOH were screened for binding to stromelysin using the procedures set forth in Example 2.

Water solubility = format: physicochemical
[1] = molecular target: T2, catalytic domain of stromelysin (Homo sapiens, UniProt P08254); assay: Enzymatic assay, cleavage of a fluorogenic substrate by stromelysin; format: biochemical
T2 construct: initiating methionine (N); made in house; host or cells: E. coli BL21(DE3)/pLysS, pET3d
Description: The target molecule was the catalytic domain of stromelysin prepared in accordance with the procedures of Example 1. […] The KD values so obtained were compared to an inhibition constant KI as determined in an enzymatic assay.
The enzymatic assay measured the rate of cleavage of a fluorogenic substrate by following the fluorescence increase upon peptide cleavage which causes a separation between the fluorophore and quencher. Enzymatic activity was measured using a matrix of different concentrations of acetohydroxamic acid and biaryl compounds.
Individual compound concentration varied due to solubility and potency.
All NMR measurements were performed in the presence of 500 mM acetohydroxamic acid, except for the titration of acetohydroxamic acid itself. Dissociation constants were obtained from the dependence of the observed chemical shift changes upon added ligand. Inhibition constants were then obtained from the inhibition data using standard procedures.

[2] = molecular target: T2, catalytic domain of stromelysin; assay: NMR binding (2D 15N/1H HSQC) to the catalytic domain of stromelysin
Description: The catalytic domain of stromelysin was prepared in accordance with the procedures of Example 1. The protein solutions used in the screening assay contained the uniformly ^15 N-labeled catalytic domain of stromelysin (0.3 mM), acetohydroxamic acid (500 mM), CaCl2 (20 mM), and sodium azide (0.5%) in a H2 O/D2 O (9/1) TRIS buffered solution (50 mM, pH=7.0).
Two-dimensional ^15 N/^1 H NMR spectra were generated at 29° C. on a Bruker AMX500 NMR spectrometer equipped with a triple resonance probe and Bruker sample changer. The ^15 N/^1 H HSQC spectra were acquired as 80x1024 complex points using sweep widths of 2000 Hz (^15 N, t^1) and 8333 Hz (^1 H, t2). […] All NMR spectra were processed and analyzed on Silicon Graphics computers using in-house-written software. […]
Various biaryl compounds of structure I were tested for binding to stromelysin at differing concentrations. The ^15 N/^1 H spectra generated at each concentration were evaluated to quantify differences in the spectra as a function of compound concentration. A binding or dissociation constant (KD)was calculated, using standard procedures well known in the art, from those differences. […]
In a first study, binding constants were determined, both by the NMR method of the present invention, and by a prior an enzymatic assay. […] The KD values so obtained were compared to an inhibition constant KI as determined in an enzymatic assay. […]

T2 sequence (P08254 100-273): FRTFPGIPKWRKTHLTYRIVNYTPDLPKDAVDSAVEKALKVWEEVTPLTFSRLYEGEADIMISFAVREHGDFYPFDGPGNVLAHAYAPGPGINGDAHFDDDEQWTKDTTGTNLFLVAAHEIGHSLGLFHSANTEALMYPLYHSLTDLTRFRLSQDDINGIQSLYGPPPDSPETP
T1 sequence (P08254 100-273): as above

SMILES: CC(=O)NO [Acetohydroxamic acid, acetohydroxamic acid]
- inhibition of the degradation of the enzyme (Stromelysin): inhibited the degradation of the enzyme
- water solubility (Water solubility): good water solubility

SMILES: c1ccc(-c2ccncc2)cc1 [Compound 7]
- Ki [1]: 320 µM
- Kd [2]: 200 µM
- Kd ([2]; Table 3, in the presence of 500 mM acetohydroxamic acid, read-out: NMR KD): 170 µM

— patent US5698401A, “Use of nuclear magnetic resonance to identify ligands to target biomolecules” (priority 1995, dated 1997)
